In ChEMBL document CHEMBL1201862, “PubChem BioAssay data set” (2004):
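Where inhibition never reached the appropriate level, the endpoint shown equals the highest concentration tested. Otherwise, values were interpolated linearly from a five-concentration, 48-hour dose response in 96-well plates. GI50 = concentration required for 50% inhibition of growth.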 The source made the active and inactive calls. Rule as the data show it: active = GI50 up to about 1.1 µM and inactive = higher.

How the values were obtained:
Test in all cases: NCI anticancer screen, dose series, 48 h
SW-620 = test system: SW-620
NCI-H226 = test system: NCI-H226
M14 = test system: M14
NCI-H23 = test system: NCI-H23
RPMI-8226 = test system: RPMI-8226
HOP-62 = test system: HOP-62
SK-OV-3 = test system: SK-OV-3
SNB-19 = test system: SNB-19
IGROV-1 = test system: IGROV-1
MOLT-4 = test system: MOLT-4
SF-295 = test system: SF-295
SR = test system: SR
PC-3 = test system: PC-3
NCI/ADR-RES = test system: NCI/ADR-RES
OVCAR-8 = test system: OVCAR-8
SNB-75 = test system: SNB-75
OVCAR-4 = test system: OVCAR-4
COLO 205 = test system: COLO 205
EKVX = test system: EKVX
HCT-116 = test system: HCT-116

Compound | GI50 (SW-620) | GI50 (NCI-H226) | GI50 (M14) | GI50 (NCI-H23) | GI50 (RPMI-8226) | GI50 (HOP-62) | GI50 (SK-OV-3) | GI50 (SNB-19) | GI50 (IGROV-1) | GI50 (MOLT-4) | GI50 (SF-295) | GI50 (SR) | GI50 (PC-3) | GI50 (NCI/ADR-RES) | GI50 (OVCAR-8) | GI50 (SNB-75) | GI50 (OVCAR-4) | GI50 (COLO 205) | GI50 (EKVX) | GI50 (HCT-116)
O=[N+]([O-])C(=C(Cl)Cl)C(Cl)=C(Cl)Cl | 0.0169 µM (active) | 0.834 µM (active) | 0.0202 µM (active) | 0.265 µM (active) | < 0.0176 µM (active) | 8.22 µM (inactive) | 3.25 µM (inactive) | 4.6 µM (inactive) | 0.422 µM (active) | 0.0166 µM (active) | 3.06 µM (inactive) | 0.13 µM (active) | 0.778 µM (active) | 1.36 µM (inactive) | 0.619 µM (active) | 1.39 µM (inactive) | 0.0847 µM (active) | 0.0368 µM (active) | 3.65 µM (inactive) | 0.0929 µM (active)
C[C@H]1CC[C@H](NC(=O)N(CCCl)N=O)CC1 | 31.3 µM (inactive) | 59 µM (inactive) | 27.6 µM (inactive) | 54.5 µM (inactive) | 31.6 µM (inactive) | 48.3 µM (inactive) | 77.3 µM (inactive) | 38.7 µM (inactive) | 38.8 µM (inactive) | 18.3 µM (inactive) | 13.4 µM (inactive) | 10.6 µM (inactive) | 47.9 µM (inactive) | 47.1 µM (inactive) | 53.2 µM (inactive) | 31.1 µM (inactive) | 31.6 µM (inactive) | 32.7 µM (inactive) | 78.3 µM (inactive) | 39.6 µM (inactive)
CN(C)c1ccc(/C=C(\NC(=O)c2ccccc2)C(=O)NC(CC(=O)O)C(=O)O)cc1 (stereo not given) | > 100 µM (inactive) | > 100 µM (inactive) | > 100 µM (inactive) | > 100 µM (inactive) | > 100 µM (inactive) | 22.9 µM (inactive) | > 100 µM (inactive) | > 100 µM (inactive) | > 100 µM (inactive) | > 100 µM (inactive) | > 100 µM (inactive) | 75 µM (inactive) | > 100 µM (inactive) | 43.7 µM (inactive) | 68.9 µM (inactive) | 1.99 µM (inactive) | 53.2 µM (inactive) | > 100 µM (inactive) | > 100 µM (inactive) | > 100 µM (inactive)
CCc1nc(N)nc(N)c1-c1ccc(Cl)cc1 [PYRIMETHAMINE] | 5.61 µM (inactive) | 42.6 µM (inactive) | 5.71 µM (inactive) | 5.79 µM (inactive) | 34.6 µM (inactive) | 13.4 µM (inactive) | 74.3 µM (inactive) | 32.8 µM (inactive) | 9.86 µM (inactive) | 4.84 µM (inactive) | 4.44 µM (inactive) | 4.24 µM (inactive) | 6.5 µM (inactive) | 30.9 µM (inactive) | 5.79 µM (inactive) | 44.9 µM (inactive) | 41.6 µM (inactive) | 18.9 µM (inactive) | 7.55 µM (inactive) | 6.14 µM (inactive)
O=C1Nc2ccccc2/C1=C/c1ccccc1 | 25.2 µM (inactive) | 17.1 µM (inactive) | 16.7 µM (inactive) | 18.1 µM (inactive) | 18.2 µM (inactive) | 18 µM (inactive) | 28.8 µM (inactive) | 14.5 µM (inactive) | 11.7 µM (inactive) | 15.6 µM (inactive) | 17.5 µM (inactive) | 14.4 µM (inactive) | 14.6 µM (inactive) | 22.8 µM (inactive) | 18.8 µM (inactive) | 12.9 µM (inactive) | 23.6 µM (inactive) | 16.8 µM (inactive) | 13.8 µM (inactive) | 14 µM (inactive)
C[C@@H]1CC[C@H]2C(C)(C)[C@H]3C[C@@]12CC[C@@]3(C)O [CEDROL] | > 100 µM (inactive) | 77.1 µM (inactive) | > 100 µM (inactive) | > 100 µM (inactive) | 24.6 µM (inactive) | > 100 µM (inactive) | > 100 µM (inactive) | > 100 µM (inactive) | > 100 µM (inactive) | 35.5 µM (inactive) | > 100 µM (inactive) | 18.7 µM (inactive) | > 100 µM (inactive) | > 100 µM (inactive) | > 100 µM (inactive) | > 100 µM (inactive) | > 100 µM (inactive) | > 100 µM (inactive) | > 100 µM (inactive) | > 100 µM (inactive)
N#CC1=C(N2CCOCC2)CCC1 | > 100 µM (inactive) | > 100 µM (inactive) | > 100 µM (inactive) | > 100 µM (inactive) | > 100 µM (inactive) | > 100 µM (inactive) | > 100 µM (inactive) | > 100 µM (inactive) | > 100 µM (inactive) | > 100 µM (inactive) | > 100 µM (inactive) | > 100 µM (inactive) | > 100 µM (inactive) | > 100 µM (inactive) | > 100 µM (inactive) | > 100 µM (inactive) | > 100 µM (inactive) | > 100 µM (inactive) | > 100 µM (inactive) | > 100 µM (inactive)
CC(C)c1ccc(O)c(=O)c(O)c1.CC(C)c1ccc(O)c(=O)cc1.CC(C)c1cccc(=O)c(O)c1.CC(C)c1ccccc(=O)c1O | 0.697 µM (active) | 1.76 µM (inactive) | 1.8 µM (inactive) | 0.851 µM (active) | 0.964 µM (active) | 1.24 µM (inactive) | 4.37 µM (inactive) | 3.4 µM (inactive) | 1.36 µM (inactive) | 0.343 µM (active) | 1.23 µM (inactive) | 0.262 µM (active) | 0.416 µM (active) | 0.42 µM (active) | 0.604 µM (active) | 2.02 µM (inactive) | 1.11 µM (active) | 2.77 µM (inactive) | 6.15 µM (inactive) | 0.373 µM (active)
OCCCc1ccc2c(c1)[C@H](CO)[C@@H](c1ccc(O)cc1)O2 | > 100 µM (inactive) | > 100 µM (inactive) | > 100 µM (inactive) | 35.8 µM (inactive) | 26 µM (inactive) | > 100 µM (inactive) | > 100 µM (inactive) | > 100 µM (inactive) | > 100 µM (inactive) | 19.5 µM (inactive) | > 100 µM (inactive) | 33.6 µM (inactive) | 50.4 µM (inactive) | > 100 µM (inactive) | > 100 µM (inactive) | > 100 µM (inactive) | 16.8 µM (inactive) | > 100 µM (inactive) | > 100 µM (inactive) | > 100 µM (inactive)
COc1cc([C@H]2Oc3c(OC)cc(CCCO)cc3[C@@H]2CO)ccc1O [DIHYDRODEHYDRODICONIFERY ALCOHOL] | > 100 µM (inactive) | > 100 µM (inactive) | > 100 µM (inactive) | 54.5 µM (inactive) | 55.1 µM (inactive) | > 100 µM (inactive) | > 100 µM (inactive) | > 100 µM (inactive) | > 100 µM (inactive) | 51.6 µM (inactive) | > 100 µM (inactive) | > 100 µM (inactive) | > 100 µM (inactive) | > 100 µM (inactive) | > 100 µM (inactive) | 44.9 µM (inactive) | 76.4 µM (inactive) | > 100 µM (inactive) | > 100 µM (inactive) | > 100 µM (inactive)
